Assay results published in ChEMBL document CHEMBL1201862, “PubChem BioAssay data set” (2004).
Activity calls are given as the source filed them. For most assays here, no stated cut-off is given here; in the data, actives have a measured IC50 and inactives only a lower limit.

How the values were obtained:
[1] = biological target: X-box-binding protein 1 (Homo sapiens, UniProt P17861); type: functional, Cricetulus griseus;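 further: confirmatory dose-response counter-screen serving a CHOP assay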
[2] = biological target: T1, Dual specificity protein phosphatase 6 (Rattus norvegicus, UniProt Q64346); type: functional;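 further: confirmatory in vitro dose-response testing of MKP-3 inhibition; recombinant His-tagged MKP-3 made in E. coli BL21 with OMFP substrate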
T1 sequence (Q64346 whole entry): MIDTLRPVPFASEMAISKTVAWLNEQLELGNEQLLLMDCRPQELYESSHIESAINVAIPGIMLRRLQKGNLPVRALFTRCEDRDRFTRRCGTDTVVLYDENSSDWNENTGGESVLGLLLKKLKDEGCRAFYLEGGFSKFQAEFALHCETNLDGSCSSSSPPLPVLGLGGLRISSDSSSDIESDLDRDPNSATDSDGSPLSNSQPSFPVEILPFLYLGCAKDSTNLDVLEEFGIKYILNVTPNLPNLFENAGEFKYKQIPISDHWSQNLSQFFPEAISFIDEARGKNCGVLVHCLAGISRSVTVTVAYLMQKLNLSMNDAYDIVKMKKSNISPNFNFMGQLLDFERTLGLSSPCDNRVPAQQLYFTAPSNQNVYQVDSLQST

[3] = biological target: T2, Dual specificity protein phosphatase 3 (Homo sapiens, UniProt P51452); experiment: SAR VHR1 absorbance Assay for In Vitro dose response studies. [Related pubchem assays (depositor defined):AID1654, AID1661, AID1878, AID1992, AID2004]
[4] = biological target: T3, Tyrosine-protein phosphatase non-receptor type 7 (Homo sapiens, UniProt P35236); experiment: redox-dependent HePTP inhibition, mechanism study, biochemical, fluorescence (AID 2068); type: functional
T3 sequence (P35236 whole entry): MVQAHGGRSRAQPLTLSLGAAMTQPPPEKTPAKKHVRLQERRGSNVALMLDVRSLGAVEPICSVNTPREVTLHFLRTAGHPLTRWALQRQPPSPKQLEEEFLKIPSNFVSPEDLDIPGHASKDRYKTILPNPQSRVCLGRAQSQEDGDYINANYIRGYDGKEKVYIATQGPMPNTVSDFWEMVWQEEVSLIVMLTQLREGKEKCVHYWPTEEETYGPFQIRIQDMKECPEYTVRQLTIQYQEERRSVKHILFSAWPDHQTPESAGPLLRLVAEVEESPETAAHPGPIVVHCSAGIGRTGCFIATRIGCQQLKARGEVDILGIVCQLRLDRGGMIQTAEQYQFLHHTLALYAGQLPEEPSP

[5] = biological target: T2, Dual specificity protein phosphatase 3; experiment: SAR VHR1 Fluorescent Assay for In Vitro dose response studies. [Related pubchem assays (depositor defined):AID1654, AID1661, AID1878, AID1992, AID2004, AID2070, AID2085]; type: functional
[6] = biological target: T4, Voltage-gated N-type calcium channel alpha-1B subunit/Amyloid beta A4 precursor protein-binding family A member 1 (Homo sapiens, UniProt Q00975+Q02410); experiment: disruptors of Mint-PDZ/N-type channel peptide interaction – biochemical, HTRF, SAR follow-up (AID 2489); type: functional
[7] = biological target: T4, Voltage-gated N-type calcium channel alpha-1B subunit/Amyloid beta A4 precursor protein-binding family A member 1; experiment: disruptors of Mint-PDZ/N-type channel peptide interaction – biochemical, HTRF, set 2, SAR follow-up (AID 434980); type: functional
[8] = biological target: G2/mitotic-specific cyclin-B1 (Homo sapiens, UniProt P14635); experiment: G2/M cell cycle arrest in HeLa, late-stage follow-up, mechanism study for Wee1 degradation inhibitor project, FACS, panel member Cyclin B Degradation (AID 2088)
[9] = biological target: Wee1-like protein kinase (Homo sapiens, UniProt P30291); experiment: G2/M cell cycle arrest in HeLa, late-stage follow-up, mechanism study for Wee1 degradation inhibitor project, FACS, panel member Wee1 Degradation (AID 2088)
Chain of Wee1-like protein kinase (P30291 whole entry): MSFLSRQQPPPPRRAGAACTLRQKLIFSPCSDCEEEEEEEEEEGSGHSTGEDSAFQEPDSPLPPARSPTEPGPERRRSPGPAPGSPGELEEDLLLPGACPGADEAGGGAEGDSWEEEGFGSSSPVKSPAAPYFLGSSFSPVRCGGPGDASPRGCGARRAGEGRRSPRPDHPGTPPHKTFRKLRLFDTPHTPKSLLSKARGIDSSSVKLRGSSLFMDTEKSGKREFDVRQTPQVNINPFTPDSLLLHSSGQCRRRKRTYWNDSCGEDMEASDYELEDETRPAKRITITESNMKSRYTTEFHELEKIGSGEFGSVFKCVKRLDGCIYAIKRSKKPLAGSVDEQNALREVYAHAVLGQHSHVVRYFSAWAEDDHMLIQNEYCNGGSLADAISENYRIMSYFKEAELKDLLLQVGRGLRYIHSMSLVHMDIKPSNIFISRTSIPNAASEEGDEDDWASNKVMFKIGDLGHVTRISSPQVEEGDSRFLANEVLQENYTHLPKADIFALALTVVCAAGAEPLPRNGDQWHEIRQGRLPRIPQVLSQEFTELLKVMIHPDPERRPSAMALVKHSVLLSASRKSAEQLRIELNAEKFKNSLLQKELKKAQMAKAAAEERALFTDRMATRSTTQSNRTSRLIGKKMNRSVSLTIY

T4 sequence (Q00975 whole entry): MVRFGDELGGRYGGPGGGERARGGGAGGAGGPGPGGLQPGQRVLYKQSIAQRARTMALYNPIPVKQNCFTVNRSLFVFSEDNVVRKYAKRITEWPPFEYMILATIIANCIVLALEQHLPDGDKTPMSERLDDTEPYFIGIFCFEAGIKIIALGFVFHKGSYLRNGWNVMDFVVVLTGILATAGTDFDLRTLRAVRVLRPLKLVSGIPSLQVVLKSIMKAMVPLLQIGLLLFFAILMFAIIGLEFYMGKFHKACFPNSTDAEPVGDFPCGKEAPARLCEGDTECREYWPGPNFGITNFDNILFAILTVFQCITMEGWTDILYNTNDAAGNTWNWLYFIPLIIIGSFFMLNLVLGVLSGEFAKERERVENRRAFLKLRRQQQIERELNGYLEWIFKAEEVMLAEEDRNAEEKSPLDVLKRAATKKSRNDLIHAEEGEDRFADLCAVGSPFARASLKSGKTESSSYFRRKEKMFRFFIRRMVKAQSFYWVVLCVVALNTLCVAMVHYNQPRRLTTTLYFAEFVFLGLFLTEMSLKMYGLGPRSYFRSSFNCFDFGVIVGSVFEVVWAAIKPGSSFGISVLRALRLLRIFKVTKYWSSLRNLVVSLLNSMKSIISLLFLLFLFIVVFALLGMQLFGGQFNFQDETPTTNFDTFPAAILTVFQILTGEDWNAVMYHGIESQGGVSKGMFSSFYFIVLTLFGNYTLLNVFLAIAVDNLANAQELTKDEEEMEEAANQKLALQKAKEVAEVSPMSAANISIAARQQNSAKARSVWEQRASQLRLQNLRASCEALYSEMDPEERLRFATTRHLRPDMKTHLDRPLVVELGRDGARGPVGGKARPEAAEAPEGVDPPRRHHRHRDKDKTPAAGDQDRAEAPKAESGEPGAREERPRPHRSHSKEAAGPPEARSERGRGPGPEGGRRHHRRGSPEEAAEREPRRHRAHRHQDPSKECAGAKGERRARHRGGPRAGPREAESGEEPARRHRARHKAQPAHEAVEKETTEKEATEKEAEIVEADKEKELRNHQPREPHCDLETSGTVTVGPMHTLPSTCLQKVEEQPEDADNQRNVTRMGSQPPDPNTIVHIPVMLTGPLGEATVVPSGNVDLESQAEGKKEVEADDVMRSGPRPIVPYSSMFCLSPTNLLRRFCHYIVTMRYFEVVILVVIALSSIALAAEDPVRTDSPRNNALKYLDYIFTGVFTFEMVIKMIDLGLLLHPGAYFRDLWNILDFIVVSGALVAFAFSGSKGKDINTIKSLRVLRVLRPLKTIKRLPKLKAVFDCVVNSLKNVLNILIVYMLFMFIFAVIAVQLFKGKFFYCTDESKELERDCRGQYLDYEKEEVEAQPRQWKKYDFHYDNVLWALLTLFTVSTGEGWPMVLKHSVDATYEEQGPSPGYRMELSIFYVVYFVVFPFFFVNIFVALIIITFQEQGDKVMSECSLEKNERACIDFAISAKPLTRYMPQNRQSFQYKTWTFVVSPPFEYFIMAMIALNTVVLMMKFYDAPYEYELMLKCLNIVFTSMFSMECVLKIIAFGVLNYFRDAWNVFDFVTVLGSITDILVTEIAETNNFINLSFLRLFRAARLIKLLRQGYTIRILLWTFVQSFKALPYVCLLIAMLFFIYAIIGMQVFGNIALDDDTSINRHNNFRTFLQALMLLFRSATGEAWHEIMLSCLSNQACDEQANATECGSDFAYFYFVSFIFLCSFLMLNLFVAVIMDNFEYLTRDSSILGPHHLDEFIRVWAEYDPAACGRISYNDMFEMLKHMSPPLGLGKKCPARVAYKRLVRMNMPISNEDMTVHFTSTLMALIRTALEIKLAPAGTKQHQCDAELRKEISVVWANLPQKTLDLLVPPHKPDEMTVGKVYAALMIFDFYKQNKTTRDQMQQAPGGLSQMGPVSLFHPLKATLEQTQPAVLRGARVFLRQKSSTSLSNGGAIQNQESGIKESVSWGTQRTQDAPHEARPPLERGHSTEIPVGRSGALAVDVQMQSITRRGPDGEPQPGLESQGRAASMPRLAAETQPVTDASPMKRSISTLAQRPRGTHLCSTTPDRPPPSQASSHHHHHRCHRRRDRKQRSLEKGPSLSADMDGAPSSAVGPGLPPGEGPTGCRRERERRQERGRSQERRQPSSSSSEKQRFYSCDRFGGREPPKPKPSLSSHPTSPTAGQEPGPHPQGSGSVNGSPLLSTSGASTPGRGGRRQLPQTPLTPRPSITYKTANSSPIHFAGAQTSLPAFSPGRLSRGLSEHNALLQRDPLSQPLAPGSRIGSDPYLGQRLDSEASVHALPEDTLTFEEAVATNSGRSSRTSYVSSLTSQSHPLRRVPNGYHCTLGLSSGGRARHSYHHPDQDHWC
T4 sequence (Q02410 whole entry): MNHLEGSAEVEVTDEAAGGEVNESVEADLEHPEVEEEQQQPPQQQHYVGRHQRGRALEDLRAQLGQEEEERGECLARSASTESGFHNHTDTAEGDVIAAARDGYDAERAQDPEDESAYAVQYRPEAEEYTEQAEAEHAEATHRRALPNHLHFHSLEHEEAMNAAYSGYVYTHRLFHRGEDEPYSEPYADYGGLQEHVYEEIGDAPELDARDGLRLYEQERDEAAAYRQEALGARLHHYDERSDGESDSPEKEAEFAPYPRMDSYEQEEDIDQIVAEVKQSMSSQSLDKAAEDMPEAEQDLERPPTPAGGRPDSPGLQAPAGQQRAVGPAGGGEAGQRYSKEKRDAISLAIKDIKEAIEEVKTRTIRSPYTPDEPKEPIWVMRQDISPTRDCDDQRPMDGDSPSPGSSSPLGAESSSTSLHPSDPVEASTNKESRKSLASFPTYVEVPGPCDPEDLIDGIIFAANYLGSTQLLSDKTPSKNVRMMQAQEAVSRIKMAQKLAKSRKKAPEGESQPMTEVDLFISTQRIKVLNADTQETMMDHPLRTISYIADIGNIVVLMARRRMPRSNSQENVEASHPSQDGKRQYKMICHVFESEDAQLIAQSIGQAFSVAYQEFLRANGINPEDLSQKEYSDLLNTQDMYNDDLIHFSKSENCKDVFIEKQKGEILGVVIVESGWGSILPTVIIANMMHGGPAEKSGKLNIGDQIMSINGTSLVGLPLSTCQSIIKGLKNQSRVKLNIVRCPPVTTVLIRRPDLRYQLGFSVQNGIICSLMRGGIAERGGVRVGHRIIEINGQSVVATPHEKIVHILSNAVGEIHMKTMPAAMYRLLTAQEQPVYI
T2 sequence (P51452 whole entry): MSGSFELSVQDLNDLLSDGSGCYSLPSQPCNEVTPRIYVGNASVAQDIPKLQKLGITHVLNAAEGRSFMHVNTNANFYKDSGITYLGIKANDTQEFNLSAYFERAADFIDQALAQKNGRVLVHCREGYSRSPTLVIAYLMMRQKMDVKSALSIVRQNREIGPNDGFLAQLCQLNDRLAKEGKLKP
Chain of G2/mitotic-specific cyclin-B1 (P14635 whole entry): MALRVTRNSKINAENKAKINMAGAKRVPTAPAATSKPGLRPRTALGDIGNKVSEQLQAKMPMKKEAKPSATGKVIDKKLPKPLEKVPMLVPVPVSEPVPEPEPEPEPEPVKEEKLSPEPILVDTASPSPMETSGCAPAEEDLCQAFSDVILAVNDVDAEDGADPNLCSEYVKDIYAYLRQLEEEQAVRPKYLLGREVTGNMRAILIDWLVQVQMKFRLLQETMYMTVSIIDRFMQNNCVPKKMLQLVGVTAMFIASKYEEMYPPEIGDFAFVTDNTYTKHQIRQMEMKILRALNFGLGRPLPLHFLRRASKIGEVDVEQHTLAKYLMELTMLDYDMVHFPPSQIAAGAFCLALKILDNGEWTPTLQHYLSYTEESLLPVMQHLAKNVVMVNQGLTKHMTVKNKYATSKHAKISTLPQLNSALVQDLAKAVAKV
Chain of X-box-binding protein 1 (P17861 whole entry): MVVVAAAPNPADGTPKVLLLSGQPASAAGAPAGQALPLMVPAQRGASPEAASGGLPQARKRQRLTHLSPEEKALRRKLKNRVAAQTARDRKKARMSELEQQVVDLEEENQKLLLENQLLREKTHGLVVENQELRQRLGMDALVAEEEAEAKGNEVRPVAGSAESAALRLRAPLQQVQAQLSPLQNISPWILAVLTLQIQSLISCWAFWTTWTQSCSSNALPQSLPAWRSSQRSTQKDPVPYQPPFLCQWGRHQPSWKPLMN

Q: For Cc1nn(-c2ccc(C(F)(F)F)cn2)c(C)c1Oc1ccccc1O, which “Absolute IC50 (XBP1)” value [1] is on record?
A: 10 µM

Q: Which IC50 [2] does the source give for CNC(=O)c1cn(CCOc2ccccc2)c2ccccc12 here?
A: > 100 µM (inactive)

Q: What about the IC50 [3] of the same compound?
A: > 100 µM (inactive)

Q: What about the IC50 [4] of the same compound?
A: 86.8 µM (active)

Q: What about the IC50 [5] of the same compound?
A: > 100 µM (inactive)

Q: How did the IC50 [6] turn out when O=C(NCCc1ccccc1)c1cc(-c2ccco2)nc2ccccc12 was run?
A: > 56.8 µM (inactive)

Q: And the IC50 [7]?
A: > 56.8 µM (inactive)

Q: For Cn1c(=O)cc(OCCCC(=O)Nc2cccc(C(F)(F)F)c2)c2ccccc21, which EC50 [8] is on record?
A: > 49.7 µM (inactive)

Q: What about the EC50 [9] of the same compound?
A: > 49.7 µM (inactive)
